Where two headings read alike, the source gives them in different places.
Tests used:
FGFR3 = FGFR3 (Homo sapiens (Human), UniProt P22607); test: FGFR Enzymatic Assay (FRET, peptide phosphorylation), FGFR3; type: biochemical; details: pre-incubated for 4 hours; ATP 140 μM
FGFR2 = FGFR2 (Homo sapiens (Human), UniProt P21802); test: FGFR Enzymatic Assay (FRET, peptide phosphorylation), FGFR2; details: read-out: FGFR2 IC50; pre-incubated for 4 hours; ATP 100 uM
FGFR1 = FGFR1 (Homo sapiens (Human), UniProt P11362); test: FGFR Enzymatic Assay (FRET, peptide phosphorylation), FGFR1; details: read-out: FGFR1 IC50; pre-incubated for 4 hours; ATP 210 uM
FGFR4 = FGFR4 (Homo sapiens (Human), UniProt P22455); test: FGFR Enzymatic Assay (FRET, peptide phosphorylation), FGFR4
[1] = read-out: FGFR4 IC50, pre-incubated for 4 hours, ATP 600 uM

Chain of FGFR4 (P22455 22-802): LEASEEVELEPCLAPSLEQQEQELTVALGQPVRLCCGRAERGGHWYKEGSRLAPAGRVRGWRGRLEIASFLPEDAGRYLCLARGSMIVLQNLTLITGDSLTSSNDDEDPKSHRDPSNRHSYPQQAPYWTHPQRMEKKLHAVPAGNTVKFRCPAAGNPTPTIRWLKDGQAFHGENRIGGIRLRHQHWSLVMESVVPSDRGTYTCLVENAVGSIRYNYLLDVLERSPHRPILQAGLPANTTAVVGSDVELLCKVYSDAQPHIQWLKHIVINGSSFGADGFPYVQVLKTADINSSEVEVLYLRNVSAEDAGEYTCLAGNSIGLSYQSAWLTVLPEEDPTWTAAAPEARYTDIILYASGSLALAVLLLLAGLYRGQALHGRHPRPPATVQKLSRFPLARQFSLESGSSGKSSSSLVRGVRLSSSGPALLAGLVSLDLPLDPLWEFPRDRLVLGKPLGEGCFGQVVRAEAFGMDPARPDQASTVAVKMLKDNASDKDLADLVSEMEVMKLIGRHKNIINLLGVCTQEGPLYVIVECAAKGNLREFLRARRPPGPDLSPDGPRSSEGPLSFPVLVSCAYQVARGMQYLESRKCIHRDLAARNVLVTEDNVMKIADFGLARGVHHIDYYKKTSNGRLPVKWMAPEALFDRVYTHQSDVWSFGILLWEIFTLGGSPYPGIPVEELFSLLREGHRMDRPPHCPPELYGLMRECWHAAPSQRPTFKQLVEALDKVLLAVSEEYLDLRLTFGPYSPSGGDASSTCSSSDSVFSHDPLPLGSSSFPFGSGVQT
Chain of FGFR3 (P22607 23-806): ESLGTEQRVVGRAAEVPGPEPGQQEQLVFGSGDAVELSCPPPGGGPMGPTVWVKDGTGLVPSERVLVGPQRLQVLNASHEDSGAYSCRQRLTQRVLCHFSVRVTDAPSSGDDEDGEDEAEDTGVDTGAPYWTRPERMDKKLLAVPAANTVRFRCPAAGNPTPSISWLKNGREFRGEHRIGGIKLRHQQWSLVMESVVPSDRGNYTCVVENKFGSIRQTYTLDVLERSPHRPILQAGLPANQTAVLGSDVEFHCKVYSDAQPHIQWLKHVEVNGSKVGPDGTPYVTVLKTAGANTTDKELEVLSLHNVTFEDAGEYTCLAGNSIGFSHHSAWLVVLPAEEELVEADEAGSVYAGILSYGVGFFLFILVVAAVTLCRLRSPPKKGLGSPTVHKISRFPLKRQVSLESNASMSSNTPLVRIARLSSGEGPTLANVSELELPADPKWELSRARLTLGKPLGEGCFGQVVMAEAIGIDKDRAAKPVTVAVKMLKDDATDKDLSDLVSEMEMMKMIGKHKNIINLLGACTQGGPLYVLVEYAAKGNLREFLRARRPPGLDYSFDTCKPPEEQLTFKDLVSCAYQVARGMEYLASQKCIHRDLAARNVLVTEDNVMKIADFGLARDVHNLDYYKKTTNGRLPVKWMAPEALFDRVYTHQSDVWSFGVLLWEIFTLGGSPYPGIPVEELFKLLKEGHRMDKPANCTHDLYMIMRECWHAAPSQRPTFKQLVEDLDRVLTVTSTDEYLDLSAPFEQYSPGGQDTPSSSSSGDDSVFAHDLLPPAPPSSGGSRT
Chain of FGFR1 (P11362 22-822): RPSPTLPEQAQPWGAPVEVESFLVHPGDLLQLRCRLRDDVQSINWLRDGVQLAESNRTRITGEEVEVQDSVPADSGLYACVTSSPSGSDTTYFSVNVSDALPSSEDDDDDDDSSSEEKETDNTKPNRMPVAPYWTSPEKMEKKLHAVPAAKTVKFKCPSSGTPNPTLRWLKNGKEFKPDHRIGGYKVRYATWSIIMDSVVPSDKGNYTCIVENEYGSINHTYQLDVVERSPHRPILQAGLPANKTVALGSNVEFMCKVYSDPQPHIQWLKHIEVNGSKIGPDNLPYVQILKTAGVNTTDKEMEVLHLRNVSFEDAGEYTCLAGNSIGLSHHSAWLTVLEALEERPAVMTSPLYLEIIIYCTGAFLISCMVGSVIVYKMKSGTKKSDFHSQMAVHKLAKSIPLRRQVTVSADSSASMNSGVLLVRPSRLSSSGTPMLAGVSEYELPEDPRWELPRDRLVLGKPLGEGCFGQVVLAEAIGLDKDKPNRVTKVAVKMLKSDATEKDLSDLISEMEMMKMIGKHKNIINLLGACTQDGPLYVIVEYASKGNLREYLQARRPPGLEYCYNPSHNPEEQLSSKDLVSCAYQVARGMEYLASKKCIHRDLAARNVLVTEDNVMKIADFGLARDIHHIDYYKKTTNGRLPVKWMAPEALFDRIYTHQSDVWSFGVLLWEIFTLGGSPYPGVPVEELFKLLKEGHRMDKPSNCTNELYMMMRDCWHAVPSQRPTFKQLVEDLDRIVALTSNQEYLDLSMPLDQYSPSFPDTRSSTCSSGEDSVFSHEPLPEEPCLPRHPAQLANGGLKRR
Chain of FGFR2 (P21802 22-821): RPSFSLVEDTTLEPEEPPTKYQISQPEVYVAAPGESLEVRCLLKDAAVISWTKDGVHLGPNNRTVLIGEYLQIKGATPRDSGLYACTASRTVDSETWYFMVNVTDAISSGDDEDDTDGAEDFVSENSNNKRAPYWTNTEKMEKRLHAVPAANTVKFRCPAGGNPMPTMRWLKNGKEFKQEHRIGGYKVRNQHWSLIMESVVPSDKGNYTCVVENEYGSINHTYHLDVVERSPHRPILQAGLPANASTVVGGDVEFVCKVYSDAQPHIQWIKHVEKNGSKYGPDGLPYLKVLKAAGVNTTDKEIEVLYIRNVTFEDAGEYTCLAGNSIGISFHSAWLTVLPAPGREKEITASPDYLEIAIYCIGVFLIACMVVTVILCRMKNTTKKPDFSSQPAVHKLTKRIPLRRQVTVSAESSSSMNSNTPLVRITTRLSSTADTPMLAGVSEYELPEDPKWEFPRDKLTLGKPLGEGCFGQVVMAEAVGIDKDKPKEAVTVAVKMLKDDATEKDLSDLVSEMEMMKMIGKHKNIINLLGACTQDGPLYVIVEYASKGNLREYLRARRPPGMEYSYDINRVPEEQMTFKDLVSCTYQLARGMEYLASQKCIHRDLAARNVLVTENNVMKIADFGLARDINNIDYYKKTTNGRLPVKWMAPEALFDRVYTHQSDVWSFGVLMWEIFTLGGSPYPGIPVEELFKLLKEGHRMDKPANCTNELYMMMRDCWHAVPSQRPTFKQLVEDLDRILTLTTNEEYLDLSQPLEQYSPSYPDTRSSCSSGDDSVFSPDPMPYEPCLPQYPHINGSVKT

| SMILES | IC50 (FGFR3) [nM] | IC50 (FGFR2) [nM] | IC50 (FGFR1) [nM] | IC50 (FGFR4; [1]) [nM] | IC50 (FGFR4) [nM] |
| --- | --- | --- | --- | --- | --- |
| C=CC(=O)NCc1cc2c(cn1)CN(c1c(F)c(OC)cc(OC)c1F)C(=O)N2C[C@H]1CCOC1 [Example 19, (R)—N-((3-(2,6-difluoro-3,5-dimethoxyphenyl)-2-oxo-1-((tetrahydrofuran-3-yl)methyl)-1,2,3,4-tetrahydropyrido[4,3-d]pyrimidin-7-yl)methyl)acrylamide] | > 200 | > 200 | > 200 | < 10 | – |
| C=CC(=O)NCc1cc2c(cn1)CN(c1c(F)c(OC)cc(OC)c1F)C(=O)N2c1ccccc1 [Example 6, N-((3-(2,6-difluoro-3,5-dimethoxyphenyl)-2-oxo-1-phenyl-1,2,3,4-tetrahydropyrido[4,3-d]pyrimidin-7-yl)methyl)acrylamide] | > 200 | > 200 | > 200 | – | 10 to 30 |
| C=CC(=O)NCc1cc2c(cn1)CN(c1c(F)c(OC)cc(OC)c1F)C(=O)N2C1CC1 [Example 10, N-((1-cyclopropyl-3-(2,6-difluoro-3,5-dimethoxyphenyl)-2-oxo-1,2,3,4-tetrahydropyrido[4,3-d]pyrimidin-7-yl)methyl)acrylamide] | > 200 | > 200 | > 200 | – | 10 to 30 |
| C=CC(=O)NCc1cc2c(cn1)CN(c1c(F)c(OC)cc(OC)c1F)C(=O)N2[C@H]1CCOC1 [Example 8, (S)—N-((3-(2,6-difluoro-3,5-dimethoxyphenyl)-2-oxo-1-(tetrahydrofuran-3-yl)-1,2,3,4-tetrahydropyrido[4,3-d]pyrimidin-7-yl)methyl)acrylamide] | > 200 | > 200 | > 200 | < 10 | – |
| C=CC(=O)NCc1ncc2c(c1C)C1(CC1)C(=O)N(c1c(F)c(OC)cc(OC)c1F)C2 [Example 37, N-((2′-(2,6-difluoro-3,5-dimethoxyphenyl)-5′-methyl-3′-oxo-2′,3′-dihydro-1′H-spiro[cyclopropane-1,4′-[2,7]naphthyridine]-6′-yl)methyl)acrylamide] | > 200 | > 200 | > 200 | – | 10 to 30 |
| C=CC(=O)NCc1cc2c(cn1)CN(c1c(F)c(OC)cc(OC)c1F)C(=O)N2C(C)C [Example 15, N-((3-(2,6-difluoro-3,5-dimethoxyphenyl)-1-isopropyl-2-oxo-1,2,3,4-tetrahydropyrido[4,3-d]pyrimidin-7-yl)methyl)acrylamide] | > 200 | > 200 | > 200 | < 10 | – |
| C=CC(=O)NCc1cc2c(cn1)CN(c1c(F)c(OC)cc(OC)c1F)C(=O)N2C[C@@H]1CCOC1 [Example 31, (S)—N-((3-(2,6-difluoro-3,5-dimethoxyphenyl)-2-oxo-1-((tetrahydrofuran-3-yl)methyl)-1,2,3,4-tetrahydropyrido[4,3-d]pyrimidin-7-yl)methyl)acrylamide] | > 200 | > 200 | > 200 | < 10 | – |
| C=CC(=O)NCc1cc2c(cn1)CN(c1c(F)c(OC)cc(OC)c1F)C(=O)N2c1cccnc1 [Example 3, N-((3-(2,6-difluoro-3,5-dimethoxyphenyl)-2-oxo-1-(pyridin-3-yl)-1,2,3,4-tetrahydropyrido[4,3-d]pyrimidin-7-yl)methyl)acrylamide] | > 200 | > 200 | > 200 | – | 10 to 30 |
| C=CC(=O)NCc1cc2c(cn1)CN(c1c(F)c(OC)cc(OC)c1F)C(=O)N2CC [Example 2, N-((3-(2,6-difluoro-3,5-dimethoxyphenyl)-1-ethyl-2-oxo-1,2,3,4-tetrahydropyrido[4,3-d]pyrimidin-7-yl)methyl)acrylamide] | > 200 | > 200 | > 200 | < 10 | – |
| C=CC(=O)NCc1cc2c(cn1)CN(c1c(F)c(OC)cc(OC)c1F)C(=O)C21CCCC1 [Example 5, N-((2′-(2,6-difluoro-3,5-dimethoxyphenyl)-3′-oxo-2′,3′-dihydro-1′H-spiro[cyclopentane-1,4′-[2,7]naphthyridine]-6′-yl)methyl)acrylamide] | > 200 | > 200 | > 200 | < 10 | – |
| C=CC(=O)NCc1cc2c(cn1)CN(c1c(F)c(OC)cc(OC)c1F)C(=O)N2c1ccn(C)n1 [Example 7, N-((3-(2,6-difluoro-3,5-dimethoxyphenyl)-1-(1-methyl-1H-pyrazol-3-yl)-2-oxo-1,2,3,4-tetrahydropyrido[4,3-d]pyrimidin-7-yl)methyl)acrylamide] | > 200 | > 200 | > 200 | – | 10 to 30 |
| C=CC(=O)NCc1cc2c(cn1)CN(c1c(F)c(OC)cc(OC)c1F)C(=O)N2CC#N [Example 20, N-((1-(cyanomethyl)-3-(2,6-difluoro-3,5-dimethoxyphenyl)-2-oxo-1,2,3,4-tetrahydropyrido[4,3-d]pyrimidin-7-yl)methyl)acrylamide] | > 200 | > 200 | > 200 | < 10 | – |

From patent US9890156B2, “Bicyclic heterocycles as FGFR4 inhibitors” (Incyte Corporation, priority 2015, dated 2018)
